Data taken from BindingDB's records for patent US10022376 (Pfizer, 2018).

What was measured:
Assay in all cases: JAK Caliper Enzyme Assay at 1 mM ATP
Settings in all cases: pH 7.4; 25 °C
[1] = biological target: Non-receptor tyrosine-protein kinase TYK2 (Homo sapiens, UniProt P29597)
Experimental: (§1) Test article was solubilized in dimethyl sulfoxide (DMSO) to a stock concentration of 30 mM. An 11-point half log dilution series was created in DMSO with a top concentration of 600 μM. […] The compound plates were diluted 1 to 60 resulting in a top final assay compound concentration of 10 μM and a 2% DMSO concentration.Test article and assay controls were added to a 384-well plate. Reaction mixtures contained 20 mM HEPES, pH 7.4, 10 mM magnesium chloride, 0.01% bovine serum albumin (BSA), 0.0005% Tween 20, 1 mM ATP and 1 μM peptide substrate. […] Enzyme concentrations and incubation times were optimized for each new enzyme preps and were modified slightly over time to ensure 20%-30% phosphorylation. The assays were stopped with a final concentration of 10 mM EDTA, 0.1% Coating Reagent and 100 mM HEPES, pH=7.4. The assay plates were placed on a Caliper Life Science Lab Chip 3000 (LC3000) instrument, and each well was sampled using appropriate separation conditions to measure the unphosphorylated and phosphorylated peptide.

[2] = biological target: Tyrosine-protein kinase JAK1 (Homo sapiens, UniProt P23458)
Experimental: as §1

[3] = biological target: Tyrosine-protein kinase JAK2 (Homo sapiens, UniProt O60674)
Experimental: as §1

[4] = biological target: T1, Tyrosine-protein kinase JAK3 (Homo sapiens, UniProt P52333)
T1 sequence (P52333 whole entry): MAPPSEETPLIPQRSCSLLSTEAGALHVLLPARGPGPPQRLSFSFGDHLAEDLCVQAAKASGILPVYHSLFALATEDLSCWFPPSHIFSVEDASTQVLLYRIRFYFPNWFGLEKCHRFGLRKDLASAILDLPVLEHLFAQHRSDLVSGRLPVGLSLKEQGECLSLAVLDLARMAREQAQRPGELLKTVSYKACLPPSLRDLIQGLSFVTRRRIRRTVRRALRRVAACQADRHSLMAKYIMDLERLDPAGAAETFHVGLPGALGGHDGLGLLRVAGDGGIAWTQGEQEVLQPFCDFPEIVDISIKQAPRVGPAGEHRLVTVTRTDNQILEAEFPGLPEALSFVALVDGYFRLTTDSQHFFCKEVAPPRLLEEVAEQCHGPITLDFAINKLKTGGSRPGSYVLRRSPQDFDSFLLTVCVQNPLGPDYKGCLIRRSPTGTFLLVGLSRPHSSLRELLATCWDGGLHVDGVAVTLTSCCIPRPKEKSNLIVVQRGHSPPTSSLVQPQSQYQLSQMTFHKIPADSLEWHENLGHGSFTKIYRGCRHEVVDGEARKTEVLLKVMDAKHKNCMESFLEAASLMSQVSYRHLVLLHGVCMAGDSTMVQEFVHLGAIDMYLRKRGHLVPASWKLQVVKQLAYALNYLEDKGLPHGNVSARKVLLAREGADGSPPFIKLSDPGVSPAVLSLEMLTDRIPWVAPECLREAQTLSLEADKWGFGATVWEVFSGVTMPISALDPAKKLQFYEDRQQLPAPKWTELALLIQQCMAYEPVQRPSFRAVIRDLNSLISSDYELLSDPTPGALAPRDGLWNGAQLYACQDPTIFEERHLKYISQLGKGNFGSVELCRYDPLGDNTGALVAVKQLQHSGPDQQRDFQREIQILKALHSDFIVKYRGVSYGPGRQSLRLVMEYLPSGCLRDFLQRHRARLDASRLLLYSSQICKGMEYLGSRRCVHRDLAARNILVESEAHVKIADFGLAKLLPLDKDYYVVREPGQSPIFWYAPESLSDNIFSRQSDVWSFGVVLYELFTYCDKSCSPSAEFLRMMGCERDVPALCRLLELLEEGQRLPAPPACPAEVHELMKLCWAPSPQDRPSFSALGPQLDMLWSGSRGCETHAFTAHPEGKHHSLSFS
Experimental: as §1

Tyrosine-protein kinase JAK2, sequence (O60674 whole entry): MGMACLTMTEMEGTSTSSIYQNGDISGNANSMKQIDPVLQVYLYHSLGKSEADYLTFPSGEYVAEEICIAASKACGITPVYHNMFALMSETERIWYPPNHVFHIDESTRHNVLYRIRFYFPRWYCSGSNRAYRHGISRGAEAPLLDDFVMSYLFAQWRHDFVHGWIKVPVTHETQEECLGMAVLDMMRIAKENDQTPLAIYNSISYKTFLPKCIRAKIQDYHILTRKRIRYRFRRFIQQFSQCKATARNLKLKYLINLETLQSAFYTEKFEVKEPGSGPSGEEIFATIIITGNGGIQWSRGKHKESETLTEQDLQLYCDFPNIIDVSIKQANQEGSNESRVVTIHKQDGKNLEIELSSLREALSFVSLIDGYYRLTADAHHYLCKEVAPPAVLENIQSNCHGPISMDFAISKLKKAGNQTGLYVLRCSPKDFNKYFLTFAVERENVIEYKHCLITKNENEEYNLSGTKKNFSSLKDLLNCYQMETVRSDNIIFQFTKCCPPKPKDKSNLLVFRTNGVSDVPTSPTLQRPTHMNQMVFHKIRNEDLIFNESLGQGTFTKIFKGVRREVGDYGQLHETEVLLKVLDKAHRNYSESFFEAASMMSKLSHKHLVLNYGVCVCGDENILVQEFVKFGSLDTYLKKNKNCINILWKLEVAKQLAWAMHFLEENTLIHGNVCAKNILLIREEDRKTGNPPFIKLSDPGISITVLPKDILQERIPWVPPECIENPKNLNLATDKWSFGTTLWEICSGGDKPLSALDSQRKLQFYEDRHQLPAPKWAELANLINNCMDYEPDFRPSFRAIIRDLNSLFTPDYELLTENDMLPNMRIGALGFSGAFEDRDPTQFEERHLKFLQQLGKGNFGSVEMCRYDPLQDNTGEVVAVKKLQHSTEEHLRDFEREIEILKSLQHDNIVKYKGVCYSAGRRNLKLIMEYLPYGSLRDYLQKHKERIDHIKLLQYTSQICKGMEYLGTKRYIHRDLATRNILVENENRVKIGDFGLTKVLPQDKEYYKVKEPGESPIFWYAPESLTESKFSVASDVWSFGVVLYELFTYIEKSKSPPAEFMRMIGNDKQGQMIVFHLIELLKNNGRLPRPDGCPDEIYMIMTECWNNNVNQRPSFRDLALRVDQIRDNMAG
Tyrosine-protein kinase JAK1, sequence (P23458 whole entry): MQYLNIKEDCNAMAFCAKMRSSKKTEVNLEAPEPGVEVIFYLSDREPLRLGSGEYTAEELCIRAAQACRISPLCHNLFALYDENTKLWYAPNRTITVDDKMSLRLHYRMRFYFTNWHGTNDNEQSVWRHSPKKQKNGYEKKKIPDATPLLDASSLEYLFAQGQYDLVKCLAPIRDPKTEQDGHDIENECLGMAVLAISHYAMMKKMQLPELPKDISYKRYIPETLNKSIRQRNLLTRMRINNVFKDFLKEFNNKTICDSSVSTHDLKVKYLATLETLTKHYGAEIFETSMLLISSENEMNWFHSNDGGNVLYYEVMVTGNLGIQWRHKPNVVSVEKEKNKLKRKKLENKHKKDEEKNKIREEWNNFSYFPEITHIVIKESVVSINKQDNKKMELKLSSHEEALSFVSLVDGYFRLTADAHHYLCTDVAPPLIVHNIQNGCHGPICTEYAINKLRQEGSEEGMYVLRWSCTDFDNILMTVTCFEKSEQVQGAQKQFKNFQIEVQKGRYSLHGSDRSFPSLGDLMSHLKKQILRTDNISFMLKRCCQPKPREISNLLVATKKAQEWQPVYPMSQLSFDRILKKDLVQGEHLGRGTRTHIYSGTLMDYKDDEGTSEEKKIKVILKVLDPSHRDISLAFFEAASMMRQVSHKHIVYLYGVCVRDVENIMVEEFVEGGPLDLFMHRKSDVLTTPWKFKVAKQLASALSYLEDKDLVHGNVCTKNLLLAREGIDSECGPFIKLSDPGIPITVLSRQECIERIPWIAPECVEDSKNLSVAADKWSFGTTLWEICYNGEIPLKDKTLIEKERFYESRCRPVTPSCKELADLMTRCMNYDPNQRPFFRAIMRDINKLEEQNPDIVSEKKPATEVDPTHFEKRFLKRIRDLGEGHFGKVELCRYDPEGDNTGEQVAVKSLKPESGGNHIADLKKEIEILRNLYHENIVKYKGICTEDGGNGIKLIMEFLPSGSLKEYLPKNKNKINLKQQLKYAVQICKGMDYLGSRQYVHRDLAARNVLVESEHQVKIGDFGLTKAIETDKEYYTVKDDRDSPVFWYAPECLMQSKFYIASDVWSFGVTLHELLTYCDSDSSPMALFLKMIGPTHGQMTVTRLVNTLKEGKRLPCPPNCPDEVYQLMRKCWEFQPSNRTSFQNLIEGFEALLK
Non-receptor tyrosine-protein kinase TYK2, sequence (P29597 whole entry): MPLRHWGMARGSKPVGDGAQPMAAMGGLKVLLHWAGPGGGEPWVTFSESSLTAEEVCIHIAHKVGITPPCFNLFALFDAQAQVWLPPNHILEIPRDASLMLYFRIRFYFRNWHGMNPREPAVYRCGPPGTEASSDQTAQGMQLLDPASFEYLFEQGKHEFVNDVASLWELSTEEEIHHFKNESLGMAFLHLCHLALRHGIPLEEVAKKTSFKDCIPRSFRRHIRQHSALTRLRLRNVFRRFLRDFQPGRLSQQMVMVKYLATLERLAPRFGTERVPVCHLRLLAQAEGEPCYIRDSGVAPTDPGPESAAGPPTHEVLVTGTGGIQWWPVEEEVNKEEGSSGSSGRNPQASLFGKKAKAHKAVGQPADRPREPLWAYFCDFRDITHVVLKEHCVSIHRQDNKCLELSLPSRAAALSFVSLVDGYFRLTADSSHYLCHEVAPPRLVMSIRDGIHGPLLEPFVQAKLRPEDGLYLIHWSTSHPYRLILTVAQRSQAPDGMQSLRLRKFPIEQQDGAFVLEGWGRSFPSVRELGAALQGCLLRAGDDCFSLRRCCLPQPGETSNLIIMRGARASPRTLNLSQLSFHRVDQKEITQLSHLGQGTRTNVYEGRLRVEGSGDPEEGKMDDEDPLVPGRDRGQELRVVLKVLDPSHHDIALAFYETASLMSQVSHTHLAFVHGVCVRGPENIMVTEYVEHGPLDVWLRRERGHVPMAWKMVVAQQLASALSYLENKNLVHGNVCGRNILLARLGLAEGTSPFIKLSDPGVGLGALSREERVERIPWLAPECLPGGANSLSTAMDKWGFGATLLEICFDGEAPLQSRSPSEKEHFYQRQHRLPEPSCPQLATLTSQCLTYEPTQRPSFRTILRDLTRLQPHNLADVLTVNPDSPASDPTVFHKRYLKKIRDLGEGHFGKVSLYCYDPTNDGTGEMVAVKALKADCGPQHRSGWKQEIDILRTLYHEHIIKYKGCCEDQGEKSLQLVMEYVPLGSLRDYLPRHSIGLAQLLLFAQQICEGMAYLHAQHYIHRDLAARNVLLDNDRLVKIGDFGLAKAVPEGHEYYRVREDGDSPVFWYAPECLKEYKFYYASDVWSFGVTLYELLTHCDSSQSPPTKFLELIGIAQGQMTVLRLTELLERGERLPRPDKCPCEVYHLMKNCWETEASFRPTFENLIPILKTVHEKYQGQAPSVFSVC

CCN(c1ccc(O)cc1CNc1nc(-c2cc(F)c(O)cc2CC(F)(F)F)nc2[nH]nc(C(=O)NC)c12)S(=O)(=O)c1ccccc1 [US10022376, Example 75]
IC50 [1]: 1.94 µM
IC50 [2]: 0.0611 µM
IC50 [3]: 0.321 µM
IC50 [4]: 0.755 µM

CN(c1ccc(O)cc1CNc1nc(-c2cc(F)c(O)cc2CC(F)(F)F)nc2[nH]nc(C(N)=O)c12)S(=O)(=O)c1ccccc1 [US10022376, Example 96]
IC50 [1]: 1.73 µM
IC50 [4]: 0.248 µM

CCN(c1ccc(O)cc1CNc1nc(-c2cc(F)c(O)cc2CC(F)(F)F)nc2[nH]nc(C(N)=O)c12)S(=O)(=O)c1ccccc1 [US10022376, Example 97]
IC50 [1]: 2.19 µM
IC50 [2]: 0.0551 µM

CN(c1ccccc1CNc1nc(-c2cc(F)c(O)cc2CC(F)(F)F)cc2[nH]nc(C(N)=O)c12)S(C)(=O)=O [US10022376, Example 98]
IC50 [4]: 0.0396 µM

CN(c1cc(O)ccc1CNc1nc(-c2cc(F)c(O)cc2CC(F)(F)F)cc2[nH]nc(C(N)=O)c12)S(C)(=O)=O [US10022376, Example 99]
IC50 [1]: 0.426 µM
IC50 [2]: 0.0068 µM

CNC(=O)c1n[nH]c2nc(-c3cc(F)c(O)cc3CC(F)(F)F)nc(NCc3ccccc3N(CCO)S(C)(=O)=O)c12 [US10022376, Example 100]
IC50 [1]: 1.15 µM
IC50 [2]: 0.0087 µM
IC50 [3]: 0.0323 µM

CC(=O)N1CCc2[nH]c(-c3n[nH]c4nc(-c5cc(F)c(O)cc5CC(F)(F)F)nc(NCc5cc(O)ccc5N(C)S(C)(=O)=O)c34)nc2C1 [US10022376, Example 105]
IC50 [1]: 0.014 µM
IC50 [3]: 0.0144 µM
IC50 [4]: 0.0512 µM

CNC(=O)c1n[nH]c2nc(-c3cc(F)c(O)cc3CC(F)(F)F)nc(NCc3nccnc3N(C)S(C)(=O)=O)c12 [US10022376, Example 106]
IC50 [1]: 6.11 µM
IC50 [2]: 0.0412 µM
IC50 [3]: 0.283 µM

CN(C)CCNC(=O)N1CCc2[nH]c(-c3n[nH]c4nc(-c5cc(F)c(O)cc5CC(F)(F)F)nc(NCc5cc(O)ccc5N(C)S(C)(=O)=O)c34)nc2C1 [US10022376, Example 110]
IC50 [1]: 0.035 µM
IC50 [2]: 0.0054 µM
IC50 [3]: 0.0269 µM

CN(c1ccc(O)cc1CNc1nc(-c2cc(F)c(O)cc2CC(F)(F)F)cc2[nH]nc(C(=O)Nc3ccc(NCCO)nc3)c12)S(C)(=O)=O [US10022376, Example 164]
IC50 [1]: 0.0242 µM
IC50 [2]: 0.0045 µM
IC50 [3]: 0.0222 µM
IC50 [4]: 0.091 µM

CN(c1ccc(O)cc1CNc1nc(-c2cc(F)c(O)cc2CC(F)(F)F)nc2[nH]nc(C(=O)Nc3ccc(NCCO)nc3)c12)S(C)(=O)=O [US10022376, Example 169]
IC50 [1]: 0.306 µM
IC50 [2]: 0.0105 µM
IC50 [4]: 0.0598 µM
